Measured values: patent US20220265612A1, “CARDIAC SARCOMERE INHIBITOR ORAL FORMULATIONS” (Cytokinetics, Inc., priority 2019, published 2022)

Legend:
[1] = system: rat cardiac contractility; assay: Echocardiography assessment of cardiac contractility, oral gavage; assay type: in vivo, Sprague Dawley rats; settings: oral dosing, estimated value
Description: Assessment of in vivo cardiac function by echocardiography was performed in male Sprague Dawley rats under isoflurane (1-3%) anesthesia. […] In vivo fractional shortening was determined by M-mode image analysis with the following calculation: ((End diastolic diameter−end systolic diameter)/end diastolic diameter×100). […] During infusion, M-mode images were taken at 5 minute intervals. The infusion stopped when fractional shortening reached up to a 60% reduction from baseline. […] Data was reported as an estimated IC50 value, which is the concentration at which fractional shortening is 50% of the pre-dose baseline contractility.
For oral dosing studies, three pre-dose baseline M-Mode images were taken at 1 minute intervals prior to compound administration. […] Rats were lightly anesthetized for M-Mode echocardiography measurements at select time points over a 24 hour period. Different dose levels were evaluated for (R)-N-(5-(5-ethyl-1,2,4-oxadiazol-3-yl)-2,3-dihydro-1H-inden-1-yl)-1-methyl-1H-pyrazole-4-carboxamide. The compound effect on cardiac fractional shortening at the highest dose evaluated is presented in Table D as a percent reduction of baseline fractional shortening (=100%).

[2] = target: T1, bovine cardiac myofibrils (Bos taurus, UniProt Q9BE39); assay: Skinned bovine cardiac myofibril ATPase assay (PK/LDH-coupled); assay type: biochemical; settings: myofibril ATPase at Ca2+ giving 75% activation (pCa75)
T1 construct: full-length cardiac myosin in the context of the native sarcomere; from tissue; host or cells: bovine cardiac left ventricular tissue, detergent-skinned (Triton X-100) myofibrils
Description: Bovine cardiac myofibrils were obtained by homogenizing bovine cardiac left ventricular tissue in the presence of a detergent such as triton X-100. Such treatment removes membranes and a majority of the soluble cytoplasmic proteins but leaves intact the cardiac sarcomeric acto-myosin apparatus. Myofibril preparations retain the ability to hydrolyze ATP in a Ca^2+ regulated manner. […] This assay regenerates myosin-produced ADP into ATP by oxidizing NADH, producing an absorbance change at 340 nm.

T1 sequence (Q9BE39 whole entry): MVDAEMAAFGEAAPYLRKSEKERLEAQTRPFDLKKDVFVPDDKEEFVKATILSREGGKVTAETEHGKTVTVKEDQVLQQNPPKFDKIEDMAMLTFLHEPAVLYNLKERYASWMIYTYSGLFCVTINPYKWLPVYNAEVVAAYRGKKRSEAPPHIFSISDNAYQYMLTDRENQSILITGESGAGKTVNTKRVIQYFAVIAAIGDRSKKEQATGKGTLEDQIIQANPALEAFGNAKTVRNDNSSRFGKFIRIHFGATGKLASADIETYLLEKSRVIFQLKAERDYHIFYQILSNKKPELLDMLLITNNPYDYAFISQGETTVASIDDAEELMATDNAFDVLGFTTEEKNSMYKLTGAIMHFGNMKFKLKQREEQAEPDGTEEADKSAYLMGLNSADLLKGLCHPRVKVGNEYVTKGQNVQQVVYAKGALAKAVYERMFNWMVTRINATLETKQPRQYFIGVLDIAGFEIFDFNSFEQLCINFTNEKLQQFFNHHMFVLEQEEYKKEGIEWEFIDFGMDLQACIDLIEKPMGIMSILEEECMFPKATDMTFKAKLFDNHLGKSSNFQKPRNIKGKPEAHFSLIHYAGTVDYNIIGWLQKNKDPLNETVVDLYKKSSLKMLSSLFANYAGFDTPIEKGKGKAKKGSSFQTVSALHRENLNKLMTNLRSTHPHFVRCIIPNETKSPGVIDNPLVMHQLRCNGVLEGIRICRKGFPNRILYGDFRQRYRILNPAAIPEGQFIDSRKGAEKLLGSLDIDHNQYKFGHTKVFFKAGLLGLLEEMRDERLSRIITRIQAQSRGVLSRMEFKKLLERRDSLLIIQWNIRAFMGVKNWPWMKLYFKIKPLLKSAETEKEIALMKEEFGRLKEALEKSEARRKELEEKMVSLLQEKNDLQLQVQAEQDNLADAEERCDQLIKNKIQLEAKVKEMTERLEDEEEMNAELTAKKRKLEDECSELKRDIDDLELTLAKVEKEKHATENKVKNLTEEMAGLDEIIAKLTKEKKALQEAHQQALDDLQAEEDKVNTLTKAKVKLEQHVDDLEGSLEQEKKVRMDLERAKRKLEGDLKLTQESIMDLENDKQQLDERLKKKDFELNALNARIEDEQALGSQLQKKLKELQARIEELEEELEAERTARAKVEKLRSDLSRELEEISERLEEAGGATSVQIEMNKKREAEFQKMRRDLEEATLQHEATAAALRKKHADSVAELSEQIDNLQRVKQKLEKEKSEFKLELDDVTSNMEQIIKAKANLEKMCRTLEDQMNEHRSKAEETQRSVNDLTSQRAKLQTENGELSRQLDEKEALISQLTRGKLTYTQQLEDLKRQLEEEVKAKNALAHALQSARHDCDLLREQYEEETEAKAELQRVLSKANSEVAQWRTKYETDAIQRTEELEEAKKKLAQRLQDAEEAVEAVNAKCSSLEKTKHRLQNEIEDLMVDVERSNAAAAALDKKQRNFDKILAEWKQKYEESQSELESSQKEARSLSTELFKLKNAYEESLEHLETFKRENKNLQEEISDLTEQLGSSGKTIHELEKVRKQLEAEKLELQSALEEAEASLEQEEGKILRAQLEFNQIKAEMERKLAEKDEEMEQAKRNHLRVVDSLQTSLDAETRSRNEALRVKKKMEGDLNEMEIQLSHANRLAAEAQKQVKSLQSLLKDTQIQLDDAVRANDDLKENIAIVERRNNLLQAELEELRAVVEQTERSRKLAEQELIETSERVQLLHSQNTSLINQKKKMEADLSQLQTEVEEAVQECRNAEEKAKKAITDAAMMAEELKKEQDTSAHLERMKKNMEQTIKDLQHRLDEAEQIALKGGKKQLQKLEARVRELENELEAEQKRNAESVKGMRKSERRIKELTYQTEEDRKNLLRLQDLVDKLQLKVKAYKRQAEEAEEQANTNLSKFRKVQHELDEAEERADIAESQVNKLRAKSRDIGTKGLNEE
T1 sequence (P85100 whole entry partner): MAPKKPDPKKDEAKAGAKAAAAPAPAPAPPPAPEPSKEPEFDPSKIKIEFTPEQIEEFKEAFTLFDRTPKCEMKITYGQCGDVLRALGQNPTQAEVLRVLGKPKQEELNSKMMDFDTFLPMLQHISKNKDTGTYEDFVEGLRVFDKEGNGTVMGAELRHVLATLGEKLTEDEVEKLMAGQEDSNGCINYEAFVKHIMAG
T1 sequence (Q3SZE5 whole entry partner): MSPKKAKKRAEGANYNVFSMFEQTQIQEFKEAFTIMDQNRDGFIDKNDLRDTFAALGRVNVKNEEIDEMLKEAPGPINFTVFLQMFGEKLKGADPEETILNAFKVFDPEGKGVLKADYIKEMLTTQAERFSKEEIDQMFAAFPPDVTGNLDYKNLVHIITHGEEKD

## CCc1nc(-c2ccc3c(c2)CC[C@H]3NC(=O)c2cnn(C)c2)no1 [(R)-N-(5-(5-ethyl-1,2,4-oxadiazol-3-yl)-2,3-dihydro-1H-inden-1-yl)-1-methyl-1H-pyrazole-4-carboxamide]
[1]
  IC10, plasma concentration for fractional shortening: 0.8 µM
[2]
  CDMF75 IC15: 0.4 µM
